Assay results published in US9908899B2 (BIOMARIN PHARMACEUTICAL INC., priority 2011, dated 2018).
Like-named read-outs stand apart in the source and are kept apart here.

Legend:
HDAC1 = HDAC1 (Homo sapiens (Human), UniProt Q13547); experiment: HDAC activity inhibition assay, HDAC1; type: biochemical
Description: (§1) The HDAC activity inhibition assay was performed as follows to determine the ability of a test compound to inhibit HDAC enzymatic activity. […] Following pre-incubation, Fluor-de-Lys™ substrate (Enzo Life Sciences, Plymouth Meeting, Pa., BML-KI104-0050) was added to a final concentration of 10 μM and plates were further incubated for 30 minutes at room temperature. […] IC50 values were calculated by using a sigmoidal dose-response (variable slope) equation in GraphPad Prism® 5 for Windows (GraphPad Software, La Jolla, Calif.).

HDAC3/NcoR2 = HDAC3/NcoR2 (Homo sapiens (Human), UniProt O15379); experiment: HDAC activity inhibition assay, HDAC3/NcoR2; type: biochemical
Chain of HDAC3/NcoR2 (O15379 whole entry): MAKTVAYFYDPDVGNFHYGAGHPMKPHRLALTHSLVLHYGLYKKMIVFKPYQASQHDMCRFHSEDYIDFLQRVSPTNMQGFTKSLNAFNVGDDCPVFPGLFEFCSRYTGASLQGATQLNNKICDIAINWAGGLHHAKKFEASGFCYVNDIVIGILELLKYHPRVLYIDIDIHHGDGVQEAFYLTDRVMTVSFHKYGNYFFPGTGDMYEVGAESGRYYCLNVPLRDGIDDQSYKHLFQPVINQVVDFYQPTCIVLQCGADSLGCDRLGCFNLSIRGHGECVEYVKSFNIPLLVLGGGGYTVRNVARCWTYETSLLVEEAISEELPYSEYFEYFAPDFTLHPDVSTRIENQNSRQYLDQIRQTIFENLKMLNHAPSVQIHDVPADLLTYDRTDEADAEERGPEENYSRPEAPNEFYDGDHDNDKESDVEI
Chain of HDAC3/NcoR2 (Q9Y618 395-489 partner): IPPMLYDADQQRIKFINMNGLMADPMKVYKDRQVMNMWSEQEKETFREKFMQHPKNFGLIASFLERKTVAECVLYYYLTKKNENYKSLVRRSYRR
Description: as §1

HDAC2 = HDAC2 (Homo sapiens (Human), UniProt Q92769); experiment: HDAC activity inhibition assay, HDAC2; type: biochemical
Chain of HDAC2 (Q92769 whole entry): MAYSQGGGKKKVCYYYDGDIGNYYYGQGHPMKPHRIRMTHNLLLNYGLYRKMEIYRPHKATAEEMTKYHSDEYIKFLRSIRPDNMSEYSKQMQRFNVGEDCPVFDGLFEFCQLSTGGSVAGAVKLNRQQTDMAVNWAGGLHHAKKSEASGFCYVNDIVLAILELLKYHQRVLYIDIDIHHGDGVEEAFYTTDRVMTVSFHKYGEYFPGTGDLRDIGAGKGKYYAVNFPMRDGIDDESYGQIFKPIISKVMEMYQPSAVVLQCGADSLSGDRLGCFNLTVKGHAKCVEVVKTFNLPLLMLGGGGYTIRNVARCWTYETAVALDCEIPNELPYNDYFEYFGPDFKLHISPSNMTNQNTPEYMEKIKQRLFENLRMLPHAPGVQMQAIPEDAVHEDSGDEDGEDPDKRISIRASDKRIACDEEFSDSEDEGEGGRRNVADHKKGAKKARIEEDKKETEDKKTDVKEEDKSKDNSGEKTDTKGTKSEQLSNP
Description: as §1

[1] = system: GM 15850(lymphoblastoid cells line) cells; experiment: In-cell deacetylase inhibition assay (DAC assay); type: cell-based; details: GM 15850 cells, 4 h incubation; read-out: 850 DAC (in-cell deacetylase inhibition IC50)
Description: Compound dilutions were made in 100% DMSO followed by parallel dilution in media with 2% DMSO. 10 μl of the compound dilutions were added to the cells to achieve the desired concentrations. The final concentration of DMSO in each well was 0.2%. The cells were incubated for 4 h at 37° C. with 5% CO2. After incubation, the cells were centrifuged down and the supernatant was removed. […] The reaction was stopped after 30 min incubation by addition of 50 μL developer (6 mg/mL trypsin in HDAC assay buffer). The reaction was allowed to develop for 30 min at room temperature and the fluorescence signal was detected using a fluorometer (Spectramax M2, Molecular Devices, Sunnyvale, Calif.) with excitation and emission wavelengths of 360 nm and 470 nm respectively. The data was fitted to a sigmoidal dose response equation with variable slope in GraphPad Prism 5.0 (GraphPad Software, La Jolla, Calif.) to determine IC50. Bottom and top of the curve were fixed to the average fluorescence response of control wells with no cells and cells but no compound respectively.

[2] = Acid stability determination; type: physicochemical; details: 100 μM in 0.01 M HCl, 50° C.
Description: A 100 μM solution of test compound was prepared by dilution of a 10 mM DMSO stock solution in a 0.01 M solution of HCl in deionized water. Immediately after mixing, an aliquot (100 μL) was sampled and analyzed by HPLC/UV. The area under the compound peak was determined and used as the time zero reference point. The remainder of the acid sample was incubated at 50° C. and samples were taken after 2, 4, and 24 hours of incubation. On a few occasions, samples were taken at 30 rather than 24 hours. These were analyzed by the same HPLC/UV method and the area of the peak corresponding to the test compound was measured. Percent remaining at a given time point was then calculated as the ratio of the area under the peak after incubation to that at time zero times 100. In those cases where a 30 hour time point was recorded, the percent remaining at 24 hours was obtained by interpolation of the percent remaining versus time curve assuming a unimolecular process, i.e. a monoexponential decay. Percent remaining after 24 hours incubation are presented in Tables 2 and 4 below, where A corresponds to more than 60%, B is between 40 and 60%, C covers 20 to 40% and D means less than 20%.

Frataxin (FXN) mRNA = experiment: Effect of HDAC inhibitors on frataxin (FXN) mRNA expression in Friedreich's ataxia patient primary lymphocytes; type: cell-based, human; details: Homo sapiens, Lymphocyte; Friedreich's ataxia patient primary lymphocytes, 48 hours; read-out: FXN 2x (concentration required for a 2-fold increase in FXN mRNA)
Description: Blood is collected from Friedreich's ataxia patient donors into tubes containing the anti-coagulant EDTA. Primary lymphocytes are isolated using Lymphocyte Separation Medium (MP Biomedicals, Solon, Ohio) following the manufacturer's instructions and including a few modifications made by Repligen. After a final wash in Phosphate Buffered Saline (PBS), the cells are distributed into a 6-well cell culture plate in cell growth medium. The test HDAC inhibitor compound is added to cells in a dose escalating manner (usually concentrations range from 1 to 10 μM) and 0.1% DMSO is added to one well of cells as a no treatment control. Cells are incubated for 48 hours at 37° C. in a CO2 incubator; cell counts are taken using a Countess automated cell counter (Invitrogen, Carlsbad, Calif.). Equivalent numbers of cells for all treatment conditions are pelleted by centrifugation and resuspended in cell lysis buffer. Total RNA is isolated from approximately 1×10^6 primary lymphocytes using a RNeasy Mini Kit (Qiagen, Valencia, Calif.), following the manufacturer's instructions and including an optional on-column DNAse digestion step. The isolation is performed either manually or using the QIAcube (Qiagen, Valencia, Calif.), an instrument that automates much of the isolation procedure. The RNA yield and concentration is determined using a Nanodrop spectrophotometer (Thermo Fisher Scientific, Waltham, Mass.) and depending on the RNA concentration, one of two protocols is used to measure frataxin (FXN) transcript levels. For samples containing at least 15 ng/μL RNA a TaqMan® Probe-based (Applied Biosystems, Carlsbad, Calif.) qRT-PCR method is used, while for samples containing less than 15 ng/μL RNA a SYBR Green qRT-PCR method is used. In the TaqMan® Probe-based method specific primer/probe pairs for FXN and GAPDH are multiplexed in each reaction. In the SYBR Green method FXN and GAPDH are amplified in separate reactions. In both methods each RNA sample is analyzed in triplicate (preferably) or duplicate (minimally) using a one-step qRT-PCR master mix that contains all the components necessary for cDNA synthesis and PCR amplification in a single, continuous reaction. After cycling is complete, MxPro Software (Agilent Technologies, Santa Clara, Calif.) is used to analyze the collected data and determine the relative amount of FXN mRNA compared to a control sample. An adaptive baseline method is used for baseline correction whereby an algorithm automatically selects the appropriate baseline cycles for each well and each dye. An amplification-based threshold is set and the corresponding threshold cycle, or Ct, is obtained for calculating target concentration. The Ct values for each target gene (FXN and GAPDH) for each replicate series are averaged. The amount of FXN (or GAPDH) in the sample is determined as the relative quantity to the calibrator where the calibrator sample is assigned an arbitrary quantity of 1. The following equation is used: Relative quantity to the calibrator=2^−ΔCt where ΔCt=(Ct_gene)unknown−(Ct_gene)calibrator, gene is either FXN or GAPDH, calibrator is a DMSO control sample, and unknown is a HDACi treated sample. The relative quantity of FXN is normalized to cell number and RNA input. Data is reported in Tables 2 and 4 below, where the concentration required for a 2-fold increase in FXN mRNA is reported as A if less than 5 μM, B if between 5 and 10 μM, C if greater than 10 μM.

Human Hepatocytes = experiment: Compound stability in hepatocytes; details: 5 μM
Description: To assess the stability and metabolism of RGFP compounds in hepatocytes. This assay was designed to evaluate the metabolism of RGFP compounds, following their incubation with human, monkey, dog and rat hepatocytes by monitoring either parent drug disappearance or metabolite appearance using HPLC.
Procedure: • Turn on the water-bath heater to 37° C. • Take out the KHB buffer and make sure it is at room temp before use • Prepare 2.5 mM concentration of RGFP compound in DMSO stock • Add 10 μL of above DMSO stock to 2490 μL KHB buffer; final concentration of RGFP compound will be 10 μM • Pre-warm 45 ml InVitro HT Medium to 37° C. in a sterile 50 ml conical tube • Add 1.0 mL Torpedo Antibiotic Mix per 45 mL InVitro HT medium • Transfer 13 mL of warm HT medium with Antibiotic Mix into a 15 mL conical tube. • Carefully remove the hepatocyte vials from liquid nitrogen (liquid phase). • Immediately immerse the vial into a 37° C. water bath. Shake gently until the ice melts entirely. […] Loosen the cell pellet by gently swirling the centrifuge tube • Transfer 100 μL of above solution to a different tube and add 900 μL of KHB buffer to count the cells • Determine the total cell count and the number of viable cells using the Trypan Blue exclusion method • Once you obtain the cell count, multiply the number by 10 (attributing to the dilution factor) • Now add required volume of KHB buffer to the tube containing hepatocytes such that the final count will be 2 million cells/mL • Dispense 50 μL of 2 million cells/ml to a 96 well plate and then add 50 μl of DMSO stock to respective wells (such that, the concentration of RGFP compounds is 5 μM and number of cells are 100000 in each well) • Place the plates on a shaker in a 37° C. incubator with 5% CO2 • Separate plates for each time point are advisable (Time points: 0 h, 1 h, 2 h, and 6 h) • After each time point, add 100 μL of quenching solution. • Quenching solution is an acetonitrile solution containing RGFP531 (10 μM) internal standard, 0.1% formic acid and phenylglyoxol (400 μM). The formic acid and phenylglyoxal is used for the identification and quantification of OPD as mentioned above. • Pipette up and down a few times to ensure a complete stop of reaction • Transfer all the solution into a 1.5 ml tube, vortex thoroughly, and centrifuge at 14000 RPM at 4° C. for 5 minutes to precipitate cell debris
Transfer the 150 μL of supernatant to vials for analysis using HPLC

[3] = Brain penetration studies; details: Table 4; mice; Cmax(brain)/Cmax(plasma)
Description: Test compounds were prepared at either 0.5 mg/ml or 5 mg/ml in 30% hydroxypropyl-β-cyclodextrin, 100 mM sodium acetate pH 5.5, 5% DMSO. C57/BL6/J mice were dosed s.c. at 5 mg/kg or 50 mg/kg, or i.v. at 5 mg/kg. Animals were euthanized at pre-dose, 5, 15, 30 min, 1, 2 and 4 hours post-dose and plasma and brain obtained. Three animals per dose per time points were used. The levels of compound in the plasma and brain were determined by standard LC/MS/MS methods. Brain/plasma ratio (BPR) was calculated as the ratio of the Cmax(brain)/Cmax(plasma).

[4] = Table 1, 2 hours pre-incubation

Chain of HDAC1 (Q13547 whole entry): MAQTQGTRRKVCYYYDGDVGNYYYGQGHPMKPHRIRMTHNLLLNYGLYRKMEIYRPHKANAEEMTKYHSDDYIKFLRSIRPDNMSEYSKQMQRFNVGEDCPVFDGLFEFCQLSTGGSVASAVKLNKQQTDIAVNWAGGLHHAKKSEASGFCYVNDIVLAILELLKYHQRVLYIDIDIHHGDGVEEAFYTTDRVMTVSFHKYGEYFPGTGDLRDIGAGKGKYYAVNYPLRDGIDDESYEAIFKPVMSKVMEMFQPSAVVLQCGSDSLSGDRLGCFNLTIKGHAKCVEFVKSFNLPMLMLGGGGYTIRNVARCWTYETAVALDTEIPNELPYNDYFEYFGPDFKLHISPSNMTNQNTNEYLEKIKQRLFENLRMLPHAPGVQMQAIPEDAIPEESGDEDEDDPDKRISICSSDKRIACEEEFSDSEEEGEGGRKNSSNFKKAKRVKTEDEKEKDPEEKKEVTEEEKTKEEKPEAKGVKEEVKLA

Cn1cc(/C=C/C(=O)Nc2cc(F)ccc2N)cn1 [C3]
IC50 (HDAC1): 1000 to 5000 nM | IC50 (HDAC3/NcoR2): < 1000 nM | IC50 (HDAC2): 1000 to 5000 nM | IC50 [1]: > 20000 nM

Nc1ccccc1NC(=O)/C=C/c1cnn(CCOc2ccccc2)c1 [D3, (E)-N-(2-aminophenyl)-3-(1-(2-phenoxyethyl)-1H-pyrazol-4-yl)acrylamide]
IC50 (HDAC1; [4]): < 1000 nM | acid stability (percent remaining after 24 hours incubation) [2]: A (A corresponds to more than 60%) | IC50 (HDAC3/NcoR2; [4]): < 1000 nM | IC50 (HDAC2; [4]): < 1000 nM | EC (2-fold FXN mRNA) (Frataxin (FXN) mRNA): 5 to 10 µM

Nc1ccccc1NC(=O)/C=C/c1cnn(Cc2ccccc2)c1 [D4]
IC50 (HDAC1; [4]): < 1000 nM | acid stability (percent remaining after 24 hours incubation) [2]: A (A corresponds to more than 60%) | IC50 (HDAC3/NcoR2; [4]): < 1000 nM | IC50 (HDAC2; [4]): 1000 to 5000 nM | EC (2-fold FXN mRNA) (Frataxin (FXN) mRNA): > 10 µM

Nc1ccccc1NC(=O)/C=C/c1cnn(CCc2ccccc2)c1 [D7]
IC50 (HDAC1; [4]): < 1000 nM | acid stability (percent remaining after 24 hours incubation) [2]: B (B is between 40 and 60%) | IC50 (HDAC3/NcoR2; [4]): < 1000 nM | IC50 (HDAC2; [4]): 1000 to 5000 nM | EC (2-fold FXN mRNA) (Frataxin (FXN) mRNA): 5 to 10 µM

Nc1ccccc1NC(=O)/C=C/c1cnn(CCCCc2ccccc2)c1 [D9]
IC50 (HDAC1; [4]): < 1000 nM | acid stability (percent remaining after 24 hours incubation) [2]: A (A corresponds to more than 60%) | IC50 (HDAC3/NcoR2; [4]): < 1000 nM | IC50 (HDAC2; [4]): < 1000 nM | EC (2-fold FXN mRNA) (Frataxin (FXN) mRNA): < 5 µM

Nc1ccccc1NC(=O)/C=C/c1cnn(CCOCc2ccccc2)c1 [D14]
IC50 (HDAC1; [4]): < 1000 nM | acid stability (percent remaining after 24 hours incubation) [2]: B (B is between 40 and 60%) | IC50 (HDAC3/NcoR2; [4]): < 1000 nM | IC50 (HDAC2; [4]): < 1000 nM | EC (2-fold FXN mRNA) (Frataxin (FXN) mRNA): 5 to 10 µM

Nc1ccccc1NC(=O)c1ccc(C=C2CCN(Cc3cccnc3)CC2)cc1 [F2]
IC50 (HDAC1; [4]): < 1000 nM | acid stability (percent remaining after 24 hours incubation) [2]: B (B is between 40 and 60%) | IC50 (HDAC3/NcoR2; [4]): < 1000 nM | IC50 (HDAC2; [4]): < 1000 nM | EC (2-fold FXN mRNA) (Frataxin (FXN) mRNA): < 5 µM

Nc1ccccc1NC(=O)c1ccc(C=C2CN(Cc3ccc4cc[nH]c4c3)C2)cc1 [F3]
IC50 (HDAC1; [4]): < 1000 nM | acid stability (percent remaining after 24 hours incubation) [2]: B (B is between 40 and 60%) | IC50 (HDAC3/NcoR2; [4]): < 1000 nM | IC50 (HDAC2; [4]): < 1000 nM | EC (2-fold FXN mRNA) (Frataxin (FXN) mRNA): < 5 µM

Nc1ccccc1NC(=O)c1ccc(C=C2CCN(Cc3cccnc3)CC2)c(Cl)c1 [F7]
IC50 (HDAC1; [4]): < 1000 nM | IC50 (HDAC1; Table 4): < 1000 nM | % left 6 h Hum (Human Hepatocytes): C (30%>C>10%) | IC50 (HDAC3/NcoR2; [4]): < 1000 nM | IC50 (HDAC3/NcoR2; Table 4): < 1000 nM | IC50 (HDAC2; [4]): < 1000 nM | IC50 (HDAC2; Table 4): < 1000 nM

CN1C2CCC1CC(=Cc1ccc(C(=O)Nc3ccccc3N)cc1Cl)C2 [F8]
IC50 (HDAC1; Table 4): < 1000 nM | BPR [3]: C (C is 0.2 to 0.5) | IC50 (HDAC3/NcoR2; Table 4): < 1000 nM | IC50 (HDAC2; Table 4): < 1000 nM

Nc1ccccc1NC(=O)c1ccc(C=C2COC2)cc1F [F9]
IC50 (HDAC1; Table 4): < 1000 nM | % left 6 h Hum (Human Hepatocytes): IA (IA<10%) | IC50 (HDAC3/NcoR2; Table 4): < 1000 nM
